“And” between values parts separate entries of the source, which are not always exact repeats. Equal entries are not always repeated.
Experiments:
[1] = test system: MV 4-11 cells (FLT3-ITD); assay: Cell survival in MV-4-11 cells (Cell Counting Kit-8); type: cell-based, human; settings: Homo sapiens, MV4-11, 72 hours
Protocol: Human acute myelogenous leukemia (AML) cell line, MV 4-11 (ATCC #CRL-9591), was obtained from the American Type Culture Collection (ATCC; Manassas, Va., USA). Growth of this tumor cell line is dependent upon the expression of an activated form of the FLT3 tyrosine kinase receptor carrying an internal tandem duplication (ITD) mutation, which is the most common molecular defect associated with AML (K. W. Yee et al., Blood 100:2941-2949, 2002). MV 4-11 cells (20,000 cells/well) were cultured in 96-well plates and maintained at 37° C. for several hours. The cells were incubated at 37° C. for 72 hours with various concentrations of compounds of the invention, 17AAG, or DMAG. 17AAG and DMAG are Hsp90 inhibitors that are currently in clinical trials and are used here as positive controls for Hsp90 inhibition. Cell survival was measured with Cell Counting Kit-8 (Dojindo Laboratories, Cat # CK04).

[2] = test system: Karpas-299 cells (NPM-ALK); assay: Cell survival in Karpas-299 cells (Cell Counting Kit-8); type: cell-based, human; settings: Homo sapiens, 72 hours
Protocol: Growth of this tumor cell line is dependent upon the expression of the NPM-ALK fusion protein. Karpas-299 cells (20,000 cells/well) were cultured in 96-well plates and maintained at 37° C. for several hours. The cells were incubated at 37° C. for 72 hours with various concentrations of compound 226 of the invention, 17AAG, and 17DMAG. 17AAG and 17DMAG are Hsp90 inhibitors that are currently in clinical trials and are used here as positive controls for Hsp90 inhibition. Cell survival was measured with Cell Counting Kit-8 (Dojindo Laboratories, Cat # CK04).

[3] = test system: human malignant melanoma tumor cell line A-375; assay: A-375 (B-raf V600E) nude mouse xenograft model; type: in vivo, human (xenograft in nude mouse); settings: 50 mg/kg i.v. 3 times per week
Description: The human malignant melanoma cell line, A-375 (ATCC #CRL-1619), was obtained from the American Type Culture Collection (ATCC; Manassas, Va., USA). Growth of this tumor cell line is dependent upon the expression of an activated form of the B-RAF serine/threonine kinase carrying a V600E mutation (K. P. Hoeflich et al., Cancer Res. 66:999-1006, 2006; D. J. Panka et al., Cancer Res. 66:1611-1619, 2006). This is the most frequent genetic abnormality observed in melanoma (N. Dhomen and R. Marais, Curr. Opin. Genet. Dev. 17:31-39, 2007). The cells were cultured in growth media prepared with Dulbecco's Modified Eagle Medium (high glucose), 10% fetal bovine serum (FBS), 1% 100× Penicillin-Streptomycin, 1% 10× sodium pyruvate and 1% 10×MEM non-essential amino acids. FBS was obtained from ATCC and all other reagents were obtained from Invitrogen Corp. (Carlsbad, Calif., USA). […] The supernatant was aspirated and the cell pellet was resuspended in 10 mL of growth media and the cell number determined using a hemocytometer. […]
Tumors were then permitted to develop in vivo until the majority reached 90-160 mm^3 in tumor volume, which required 5-6 weeks following implantation. […] Tumor volumes (V) were calculated by caliper measurement of the width (W), length (L) and thickness (T) of tumors using the following formula: V=0.5236×(L×W×T). […]

## CC(C)c1cc(-c2nnc(O)n2-c2ccc3c(ccn3C)c2)c(O)cc1O [Compound 226, 3-(2,4-di-hydroxy-5-isopropyl-phenyl)-4-(1-methyl-indol-5-yl)-5-hydroxy-[1,2,4] triazole]
[1]
  IC50: < 4 nM
[2]
  IC50: 10 nM
[3]; day 60
  average bodyweight gain relative to the start of the study: 2.7% (+/−1.1 SEM) and 2.7% (+/1.1 SEM)
[3]; nude mice, 8 doses, day 63
  % T/C value: 17%

Source: patent US20080004266A1, “Method for treating proliferative disorders associated with protooncogene products” (priority 2006, published 2008)
